Assays:
AChE = AChE (Homo sapiens, UniProt P22303); test: biochemical; conditions: for Ki: Lineweaver-Burk curves; for Ki / IC50: means of triplicate assays ± SEM; for AChE inhibition type: from Lineweaver-Burk curves; for IC50: 30°C
Experimental: Reaction mixtures contained the 50 μL of 5,5′-dithio-bis(2-nitro-benzoic)acid compound (DTNB) and 100 μL of Tris–HCl solution (1 M, pH 8.0), and 20 μL AChE solution in total volume of 1 mL. The mixture was then incubated and mixed for 15 min at 30°C. Next, The reaction was started by adding 50 μL of acetylthiocholine iodide, and carried out for 5 min at 30°C. After adding substrate, the change in absorbance at 0 and 5 minutes was recorded at 412 nm.
AChE activities were determined at 30°C by using five concentrations of acetylthiocholine iodide and three concentrations of compounds.

E. coli = test: Antimicrobial test, broth microdilution MIC; format: cell-based, Escherichia coli (ATCC 25922); conditions: Escherichia coli, 24 hours, read-out: Minimum inhibitory concentration, E. coli
Experimental: (§1) This study used standard strains of bacteria known to be resistant to antibiotics. These isolates were identified as three gram-positive bacteria: Bacillus subtilis, Staphylococcus aureus (ATCC 29213) and Enterococcus faecalis (ATCC 29212); and two Gram-negative bacteria: Escherichia coli (ATCC 25922) and Pseudomonas aeruginosa (ATCC 27853). The strains were grown in blood medium one night before the broth microdilution method was used. They were then passaged and stored in tryptic soy broth (TSB) at -20°C for repeat experiments. Bacterial strains were passaged in blood medium and incubated in an oven at 35 ± 2°C for 18–24 hours. At least 3–5 similar colonies were selected from the culture plate. These were picked up with a loop and transferred to 4–5 mL of liquid medium (e.g. tryptic soy broth). The broth was incubated at 35°C until the turbidity reached McFarland 0.5 (approximately 2–6 hours). The density of the culture in the broth was determined by preparing a bacterial solution with a McFarland density of 0.5. The microdilution method was used to determine MIC values. Standards were dissolved in DMSO. Positive controls were prepared with penicillin, fluconazole and gentamicin.
(§2) It was prepared at concentrations of 1, 2, 4, 8, 16, 32, 64, 128, 256 and 512 µg/mL. 1% DMSO was used as a solvent control. Compounds were spiked at initial test control concentrations of 250 µg/mL in MHB. MHB was added to all wells except the first well. 100 µl of compounds were added to the first well. Serial dilutions were then made and diluted to the minimum concentration (1 µg/ml). Then 0.5 McFarland was prepared from bacteria incubated in MHB for 1 night. Then 50 µl of bacterial suspension was added to each well. The plates were incubated at 37°C for 24 hours. The microplates were then read in the spectrophotometer at a wavelength of 620 nm.
(§3) 100 µl of MHB was added to each well of a 12-well U-bottom microplate. 100 μL of the previously prepared NHC precursor drug was taken and transferred to the first well, and 100 μL was taken again by pipetting and transferred to the second well. In this way, dilutions were made sequentially up to the 11th well. No NHC precursor was added to the 12th well, which was used as a positive control. Then 100 μL of the prepared 5 x 10^5 CFU/mL bacterial suspension was taken and added to all wells without adding to the 11th well. The 11th well was used as a negative control ([Demirhan et al., 2024]). The same study was performed for all NHC precursors. The microplates were then incubated at 35°C for 24 hours. The lowest concentration at which no growth occurred for all strains was determined as the MIC.

E. faecalis = test: Antimicrobial test, broth microdilution MIC; format: cell-based, Enterococcus faecalis (ATCC 29212); conditions: Enterococcus faecalis, 24 hours, read-out: Minimum inhibitory concentration, E. faecalis
Experimental: as §1, §2, §3

S. aureus = test: Antimicrobial test, broth microdilution MIC; format: cell-based, Staphylococcus aureus (ATCC 29213); conditions: Staphylococcus aureus, 24 h, read-out: Minimum inhibitory concentration, S. aureus
Experimental: as §1, §2, §3

P. aeruginosa = test: Antimicrobial test, broth microdilution MIC; format: cell-based, Pseudomonas aeruginosa (ATCC 27853); conditions: Pseudomonas aeruginosa, 24 hours, read-out: Minimum inhibitory concentration, P. aeruginosa
Experimental: as §1, §2, §3

Sequence of AChE (P22303 32-614): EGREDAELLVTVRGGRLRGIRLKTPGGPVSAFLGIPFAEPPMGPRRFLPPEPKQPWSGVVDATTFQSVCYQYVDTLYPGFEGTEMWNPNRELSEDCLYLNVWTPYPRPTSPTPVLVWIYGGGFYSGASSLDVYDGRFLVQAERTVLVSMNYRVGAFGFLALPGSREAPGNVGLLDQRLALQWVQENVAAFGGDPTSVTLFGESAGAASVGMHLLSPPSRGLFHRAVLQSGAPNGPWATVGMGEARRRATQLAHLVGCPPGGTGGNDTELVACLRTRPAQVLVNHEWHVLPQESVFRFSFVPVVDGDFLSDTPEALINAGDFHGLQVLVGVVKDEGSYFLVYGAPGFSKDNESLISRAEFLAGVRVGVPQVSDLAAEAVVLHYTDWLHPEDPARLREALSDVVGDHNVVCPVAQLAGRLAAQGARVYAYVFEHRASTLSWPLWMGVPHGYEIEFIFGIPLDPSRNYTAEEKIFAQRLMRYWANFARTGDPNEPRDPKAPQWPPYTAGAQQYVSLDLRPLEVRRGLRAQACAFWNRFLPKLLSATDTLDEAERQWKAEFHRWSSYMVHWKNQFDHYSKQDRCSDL

SMILES | Ki (AChE) [nM] | AChE inhibition type (AChE) | IC50 (AChE) [nM] | MIC (E. coli) [µg/mL] | MIC (E. faecalis) [µg/mL] | MIC (S. aureus) [µg/mL] | MIC (P. aeruginosa) [µg/mL]
CC(=O)c1ccc(-n2cc[n+](CCN3CCOCC3)c2)cc1.Cl.[Cl-] [Compound 1a, 1-(4-acetylphenyl)-3-(2-morpholino)ethylimidazolium chloride hydrochloride] | 11200 ± 1050 | Uncompetitive | 14800 ± 820 | 200 | 50 | 25 | 200
CC(=O)c1ccc(-n2cc[n+](CCN3CCCCC3)c2)cc1.Cl.[Cl-] [Compound 1b, 1-(4-acetylphenyl)-3-(2-piperidino)ethylimidazolium chloride hydrochloride] | 1690 ± 80 | Uncompetitive | 2210 ± 160 | 200 | 50 | 12.5 | 200
CC(=O)c1ccc(-n2cc[n+](CCN3CCCC3)c2)cc1.Cl.[Cl-] [Compound 1c, 1-(4-acetylphenyl)-3-(2-pyrrolidino)ethylimidazolium chloride hydrochloride] | 8050 ± 720 | Uncompetitive | 10500 ± 1080 | 50 | 50 | 25 | 25
Br.CC(=O)c1ccc(-n2cc[n+](Cc3ccccn3)c2)cc1.[Br-] [Compound 1d, 1-(4-acetylphenyl)-3-(pyridin-2-yl)methylimidazolium bromide hydrobromide] | 800 ± 60 | Uncompetitive | 1050 ± 70 | 50 | 10 | 50 | 200
Cl.O=Cc1ccc(-n2cc[n+](CCN3CCOCC3)c2)cc1.[Cl-] [Compound 2a, 1-(4-formylphenyl)-3-(2-morpholino)ethylimidazolium chloride hydrochloride] | 660 ± 30 | Uncompetitive | 870 ± 60 | 200 | 250 | 250 | 200
Cl.O=Cc1ccc(-n2cc[n+](CCN3CCCCC3)c2)cc1.[Cl-] [Compound 2b, 1-(4-formylphenyl)-3-(2-piperidino)ethylimidazolium chloride hydrochloride] | 780 ± 50 | Uncompetitive | 1020 ± 80 | 100 | 50 | 250 | 200
Cl.O=Cc1ccc(-n2cc[n+](CCN3CCCC3)c2)cc1.[Cl-] [Compound 2c, 1-(4-formylphenyl)-3-(2-pyrrolidino)ethylimidazolium chloride hydrochloride] | 3160 ± 240 | Uncompetitive | 4130 ± 250 | 200 | 50 | 100 | 200
Br.O=Cc1ccc(-n2cc[n+](Cc3ccccn3)c2)cc1.[Br-] [Compound 2d, 1-(4-formylphenyl)-3-(pyridin-2-yl)methylimidazolium bromide hydrobromide] | 630 ± 40 | Uncompetitive | 820 ± 60 | 200 | 100 | 250 | 200
